Source: US10550105B2 (Ribon Therapeutics Inc., priority 2018, dated 2020)

Biological target: PARP7 (Homo sapiens (Human), UniProt Q7Z3E1)
Experiment: Enzymatic assay for inhibition of PARP7: TR-FRET displacement of biotinylated Probe A from the TIPARP active site
Format: binding
Settings: Table A-1
Summary of the method: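 Titrated compounds compete with the biotinylated probe; after an additional 30 min incubation at 25° C, time-delayed fluorescence (90 μs) is measured. Inhibition curves use a Hill coefficient that normally floats but may be held at 1.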

Chain of PARP7 (Q7Z3E1 whole entry): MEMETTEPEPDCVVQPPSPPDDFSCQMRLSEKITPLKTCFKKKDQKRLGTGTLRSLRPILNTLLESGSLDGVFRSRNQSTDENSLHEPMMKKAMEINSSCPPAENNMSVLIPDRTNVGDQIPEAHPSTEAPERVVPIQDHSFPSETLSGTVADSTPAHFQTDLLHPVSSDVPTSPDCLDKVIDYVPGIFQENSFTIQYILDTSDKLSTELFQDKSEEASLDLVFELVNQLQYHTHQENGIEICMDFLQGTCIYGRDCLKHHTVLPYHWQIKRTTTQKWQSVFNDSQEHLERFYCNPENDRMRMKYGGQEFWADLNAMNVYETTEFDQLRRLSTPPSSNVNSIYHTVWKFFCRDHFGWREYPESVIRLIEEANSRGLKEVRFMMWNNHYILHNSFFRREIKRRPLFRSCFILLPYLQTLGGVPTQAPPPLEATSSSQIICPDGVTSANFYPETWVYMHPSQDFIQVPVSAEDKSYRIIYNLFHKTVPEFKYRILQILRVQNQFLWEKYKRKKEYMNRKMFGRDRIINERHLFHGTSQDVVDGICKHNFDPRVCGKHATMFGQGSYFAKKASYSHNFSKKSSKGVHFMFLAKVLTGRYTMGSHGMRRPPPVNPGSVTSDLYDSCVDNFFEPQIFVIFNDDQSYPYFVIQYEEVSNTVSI

| Compound | IC50 [nM] |
| --- | --- |
| N#Cc1cnc(N2CCN(C(=O)c3cc(OCC4c5ccccc5CN4c4cn[nH]c(=O)c4C(F)(F)F)cnc3F)CC2)nc1 (stereo not shown) [Example 62, 2-(4-[[2-fluoro-5-([2-[6-oxo-5-(trifluoromethyl)-1,6-dihydropyridazin-4-yl]-2,3-dihydro-1H-isoindol-1-yl]methoxy)pyridin-3-yl]carbonyl]piperazin-1-yl)pyrimidine-5-carbonitrile] | < 100 |
| N#Cc1ccc(N2CCN(C(=O)COCCOCc3cccc4c3CN(c3cn[nH]c(=O)c3C(F)(F)F)C4)CC2)nc1 [Example 124, 6-(4-[2-[2-([2-[6-oxo-5-(trifluoromethyl)-1,6-dihydropyridazin-4-yl]-2,3-dihydro-1H-isoindol-4-yl]methoxy)ethoxy]acetyl]piperazin-1-yl)pyridine-3-carbonitrile] | < 100 |
| N#Cc1ccc(N2CCN(C(=O)C/C=C\OC[C@@H]3c4ccccc4CN3c3cn[nH]c(=O)c3C(F)(F)F)CC2)nc1 (single isomer, unassigned; isomer a) [Example 79 Isomer A] | < 100 |
| CC(=O)NCCOc1cccc2c1CN(c1cn[nH]c(=O)c1C(F)(F)F)C2 [Example 211, N-(2-((2-(6-Oxo-5-(trifluoromethyl)-1,6-dihydropyridazin-4-yl)isoindolin-4-yl)oxy)ethyl)acetamide] | < 100 |
| N#Cc1ccc(N2CCN(C(=O)C[C@@H]3CC[C@H]([C@@H]4CCCN4c4cn[nH]c(=O)c4C(F)(F)F)O3)CC2)nc1 [Example 141C, 6-(4-[2-[(2S,5R)-5-[(2S)-1-[6-oxo-5-(trifluoromethyl)-1,6-dihydropyridazin-4-yl]pyrrolidin-2-yl]oxolan-2-yl]acetyl]piperazin-1-yl)pyridine-3-carbonitrile] | 100 to 1000 |
| C=CC(=O)Nc1cccc(OC[C@@H]2CCCN2c2cn[nH]c(=O)c2C(F)(F)F)c1 [Example 86, N-(3-[[(2S)-1-[6-oxo-5-(trifluoromethyl)-1,6-dihydropyridazin-4-yl]pyrrolidin-2-yl]methoxy]phenyl)prop-2-enamide] | 100 to 1000 |
| O=c1[nH]ncc(N2Cc3cc(OC4CCNCC4)cc(F)c3C2)c1C(F)(F)F [Example 3, 5-[4-fluoro-6-(piperidin-4-yloxy)-2,3-dihydro-1H-isoindol-2-yl]-4-(trifluoromethyl)-2,3-dihydropyridazin-3-one; formic acid] | < 100 |
| O=c1[nH]ncc(N2Cc3ccc(OC4CCNCC4)cc3C2)c1Cl [Example 158, 4-Chloro-5-(5-(piperidin-4-yloxy)isoindolin-2-yl)pyridazin-3(2H)-one] | 100 to 1000 |
| O=c1[nH]ncc(N2Cc3ccc(Cl)nc3C2)c1C(F)(F)F [Example 304, 5-(2-Chloro-5,7-dihydro-6H-pyrrolo[3,4-b]pyridin-6-yl)-4-(trifluoromethyl)pyridazin-3(2H)-one] | < 100 |
| O=C(C[C@H]1CC[C@@H]([C@@H]2CCCN2c2cn[nH]c(=O)c2C(F)(F)F)O1)N1CCN(c2ccc(Cl)cn2)CC1 [Example 148D, 5-[(2S)-2-[(2S,5R)-5-[2-[4-(5-chloropyridin-2-yl)piperazin-1-yl]-2-oxoethyl]oxolan-2-yl]pyrrolidin-1-yl]-4-(trifluoromethyl)-2,3-dihydropyridazin-3-one] | < 100 |
| O=C(c1cccc(OCC2c3ccccc3CN2c2cn[nH]c(=O)c2C(F)(F)F)c1)N1CCN(c2ccccn2)CC1 (stereo not shown) [Example 341, 5-(1-((3-(4-(Pyridin-2-yl)piperazine-1-carbonyl)phenoxy)methyl)isoindolin-2-yl)-4-(trifluoromethyl)pyridazin-3(2H)-one] | < 100 |
| N#Cc1ccc(N2CCN(C(=O)c3cncc(OCC4CCCN4c4cn[nH]c(=O)c4C(F)(F)F)c3)CC2)nc1 (stereo not shown) [Example 442, 6-(4-(5-((1-(6-Oxo-5-(trifluoromethyl)-1,6-dihydropyridazin-4-yl)pyrrolidin-2-yl)methoxy)nicotinoyl)piperazin-1-yl)nicotinonitrile] | < 100 |
| O=c1[nH]ncc(N2Cc3ccc(CNc4ccncc4)cc3C2)c1C(F)(F)F [Example 17, 5-(5-[[(pyridin-4-yl)amino]methyl]-2,3-dihydro-1H-isoindol-2-yl)-4-(trifluoromethyl)-2,3-dihydropyridazin-3-one] | < 100 |
| N#Cc1ccc(N2CCN(C(=O)c3ccc(OCCOCC4CCN(c5cn[nH]c(=O)c5C(F)(F)F)C4)cc3)CC2)nc1 (stereo not shown) [Example 465, 6-(4-(4-(2-((1-(6-Oxo-5-(trifluoromethyl)-1,6-dihydropyridazin-4-yl)pyrrolidin-3-yl)methoxy)ethoxy)benzoyl)piperazin-1-yl)nicotinonitrile] | < 100 |
| O=c1[nH]ncc(N2Cc3cccc(OC4CCNCC4)c3C2)c1Cl [Example 165, 4-Chloro-5-(4-(piperidin-4-yloxy)isoindolin-2-yl)pyridazin-3(2H)-one] | ≥ 1000 |
| CC(=O)N1CCN(CCOc2cccc3c2CN(c2cn[nH]c(=O)c2C(F)(F)F)C3)CC1 [Example 228, 5-(4-(2-(4-Acetylpiperazin-1-yl)ethoxy)isoindolin-2-yl)-4-(trifluoromethyl)pyridazin-3(2H)-one] | < 100 |
| COc1ccnc2c1CN(c1cn[nH]c(=O)c1C(F)(F)F)C2 [Example 337, 5-(4-Methoxy-5,7-dihydro-6H-pyrrolo[3,4-b]pyridin-6-yl)-4-(trifluoromethyl)pyridazin-3(2H)-one] | < 100 |

Further lines, results first:

| IC50 [nM] | Compound |
| --- | --- |
| < 100 | N#Cc1ccc(N2CCN(C(=O)CCOC[C@@H](Nc3cn[nH]c(=O)c3C(F)(F)F)C3CC3)CC2)nc1 [Example 605, (S)-6-[4-[3-[2-Cyclopropyl-2-[[6-oxo-5-(trifluoromethyl)-1,6-dihydropyridazin-4-yl]amino]ethoxy]propanoyl]piperazin-1-yl]nicotinonitrile] |
| < 100 | O=C(C[C@H]1CC[C@@H](COc2cn[nH]c(=O)c2C(F)(F)F)O1)N1CCN(c2ncc(Cl)cn2)CC1 (single isomer, unassigned) [Example 565 Isomer C] |
| < 100 | N#Cc1cnc(N2CCN(C(=O)CCOC[C@@H]3CCCN3c3cn[nH]c(=O)c3C(F)(F)F)CC2)cn1 [Example 474, (S)-5-(4-(3-((1-(6-Oxo-5-(trifluoromethyl)-1,6-dihydropyridazin-4-yl)pyrrolidin-2-yl)methoxy)propanoyl)piperazin-1-yl)pyrazine-2-carbonitrile] |
| < 100 | O=C(c1cccc(OC[C@@H]2c3ccccc3CN2c2cn[nH]c(=O)c2C(F)(F)F)c1)N1CCN(c2ncc(C(F)(F)F)cn2)CC1 [Example 390, (S)-4-(Trifluoromethyl)-5-(1-((3-(4-(5-(trifluoromethyl)pyrimidin-2-yl)piperazine-1-carbonyl)phenoxy)methyl)isoindolin-2-yl)pyridazin-3(2H)-one] |
| < 100 | COC[C@@H](COCCC(=O)N1CCN(c2cnc(Cl)cn2)CC1)Oc1cn[nH]c(=O)c1C(F)(F)F [Example 696, (S)-5-((1-(3-(4-(5-Chloropyrazin-2-yl)piperazin-1-yl)-3-oxopropoxy)-3-methoxypropan-2-yl)oxy)-4-(trifluoromethyl)pyridazin-3(2H)-one] |
| < 100 | C[C@H](COc1cn[nH]c(=O)c1C(F)(F)F)OCCC(=O)N1CCN(c2ccc(C#N)cn2)CC1 [Example 530D, 6-[4-(3-[[(2R)-1-[[6-Oxo-5-(trifluoromethyl)-1,6-dihydropyridazin-4-yl]oxy]propan-2-yl]oxy]propanoyl)piperazin-1-yl]pyridine-3-carbonitrile] |
| 100 to 1000 | C[C@@H](COCCC(=O)N1CCN(c2ncc(C(F)(F)F)s2)CC1)Oc1cn[nH]c(=O)c1Cl [Example 729, (S)-4-Chloro-5-((1-(3-oxo-3-(4-(5-(trifluoromethyl)thiazol-2-yl)piperazin-1-yl)propoxy)propan-2-yl)oxy)pyridazin-3(2H)-one] |
| < 100 | O=C(C[C@H]1CC[C@H](CNc2cn[nH]c(=O)c2C(F)(F)F)O1)N1CCN(c2ncc(C(F)(F)F)cn2)CC1 (single isomer, unassigned) [Example 568 Isomer B] |
| < 100 | N#Cc1ccc(N2CCN(C(=O)CCCOCC3c4ccccc4CN3c3cn[nH]c(=O)c3C(F)(F)F)CC2)nc1 (stereo not shown) [Example 408, 6-(4-(4-((2-(6-Oxo-5-(trifluoromethyl)-1,6-dihydropyridazin-4-yl)isoindolin-1-yl)methoxy)butanoyl)piperazin-1-yl)nicotinonitrile] |
| < 100 | C[C@@H](CN(C)CCC(=O)N1CCN(c2ccc(C#N)cn2)CC1)Oc1cn[nH]c(=O)c1C(F)(F)F [Example 645, (S)-6-(4-(3-(Methyl(2-((6-oxo-5-(trifluoromethyl)-1,6-dihydropyridazin-4-yl)oxy)propyl)amino)propanoyl)piperazin-1-yl)nicotinonitrile] |
| < 100 | C[C@@H](COCCC(=O)N1CCN(c2ncc(C(F)(F)F)cn2)CC1)Oc1cn[nH]c(=O)c1Br [Example 608, 4-Bromo-5-[[(2S)-1-(3-oxo-3-[4-[5-(trifluoromethyl)pyrimidin-2-yl]piperazin-1-yl]propoxy)propan-2-yl]oxy]-2,3-dihydropyridazin-3-one] |
| < 100 | C[C@@H](COCCC(=O)N1CCN(c2ccc(F)cn2)CC1)Nc1cn[nH]c(=O)c1C(F)(F)F [Example 684, (S)-5-((1-(3-(4-(5-Fluoropyridin-2-yl)piperazin-1-yl)-3-oxopropoxy)propan-2-yl)amino)-4-(trifluoromethyl)pyridazin-3(2H)-one] |
| < 100 | N#Cc1ccc(N2CCN(C(=O)CCCOC[C@@H]3c4ccccc4CN3c3cn[nH]c(=O)c3C(F)(F)F)CC2)nc1 [Example 410, (S)-6-(4-(4-((2-(6-Oxo-5-(trifluoromethyl)-1,6-dihydropyridazin-4-yl)isoindolin-1-yl)methoxy)butanoyl)piperazin-1-yl)nicotinonitrile] |
| < 100 | C[C@@H](COCCC(=O)N1CCCN(c2ncc(C(F)(F)F)cn2)CC1)Nc1cn[nH]c(=O)c1C(F)(F)F [Example 669, (S)-5-((1-(3-Oxo-3-(4-(5-(trifluoromethyl)pyrimidin-2-yl)-1,4-diazepan-1-yl)propoxy)propan-2-yl)amino)-4-(trifluoromethyl)pyridazin-3(2H)-one] |
